PubChem BioAssay (NCI)
Where “and” joins values, the source holds several entries; their conditions need not be identical. Equal values may be shown once.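 Dose response: 5 concentrations. Exposure: 48 h. Format: 96-well plates. Endpoint: linear interpolation; highest concentration if not reached. GI50: concentration for 50% inhibition of growth. TGI marks complete inhibition of growth.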

Experiments:
Experiment in all cases: DTP human tumour cell line panel, 48 h
RPMI-8226 leukemia = tested on: RPMI-8226 leukemia
COLO 205 colon = tested on: COLO 205 colon
HOP-92 NSCLC = tested on: HOP-92 NSCLC
EKVX NSCLC = tested on: EKVX NSCLC
NCI/ADR-RES ovarian = tested on: NCI/ADR-RES ovarian
SK-MEL-28 melanoma = tested on: SK-MEL-28 melanoma
NCI-H460 lung = tested on: NCI-H460 lung
HS 578T breast = tested on: HS 578T breast
NCI-H23 lung = tested on: NCI-H23 lung
SK-MEL-5 melanoma = tested on: SK-MEL-5 melanoma
U251 CNS = tested on: U251 CNS
ACHN renal = tested on: ACHN renal
SF-268 CNS = tested on: SF-268 CNS
MCF7 breast = tested on: MCF7 breast
KM12 colon = tested on: KM12 colon
OVCAR-8 ovarian = tested on: OVCAR-8 ovarian
BT-549 breast = tested on: BT-549 breast
A549 NSCLC = tested on: A549 NSCLC
NCI-H226 lung = tested on: NCI-H226 lung
OVCAR-3 ovarian = tested on: OVCAR-3 ovarian
SN12C renal = tested on: SN12C renal
UO-31 renal = tested on: UO-31 renal
HCT-116 colon = tested on: HCT-116 colon
SK-MEL-2 melanoma = tested on: SK-MEL-2 melanoma
M14 melanoma = tested on: M14 melanoma
T-47D breast = tested on: T-47D breast
MALME-3M melanoma = tested on: MALME-3M melanoma
OVCAR-4 ovarian = tested on: OVCAR-4 ovarian
SNB-75 CNS = tested on: SNB-75 CNS
CAKI-1 renal = tested on: CAKI-1 renal
TK-10 renal = tested on: TK-10 renal
M19-MEL melanoma = tested on: M19-MEL melanoma
SR leukemia = tested on: SR leukemia
OVCAR-5 ovarian = tested on: OVCAR-5 ovarian
UACC-62 melanoma = tested on: UACC-62 melanoma
DU-145 prostate = tested on: DU-145 prostate
HCT-15 colon = tested on: HCT-15 colon
HOP-62 NSCLC = tested on: HOP-62 NSCLC
SK-OV-3 ovarian = tested on: SK-OV-3 ovarian
SW-620 colon = tested on: SW-620 colon
MDA-MB-231 breast = tested on: MDA-MB-231 breast
LOX IMVI melanoma = tested on: LOX IMVI melanoma
PC-3 prostate = tested on: PC-3 prostate
K-562 leukemia = tested on: K-562 leukemia
NCI-H522 lung = tested on: NCI-H522 lung
MDA-N = tested on: MDA-N
MDA-MB-435 = tested on: MDA-MB-435
786-0 renal = tested on: 786-0 renal
SNB-19 CNS = tested on: SNB-19 CNS
UACC-257 melanoma = tested on: UACC-257 melanoma
IGROV1 ovarian = tested on: IGROV1 ovarian
SF-295 CNS = tested on: SF-295 CNS
RXF 393 renal = tested on: RXF 393 renal
SF-539 CNS = tested on: SF-539 CNS
SNB-78 CNS = tested on: SNB-78 CNS
CCRF-CEM leukemia = tested on: CCRF-CEM leukemia
KM20L2 colon = tested on: KM20L2 colon
A498 renal = tested on: A498 renal
HT29 colon = tested on: HT29 colon
LXFL 529 NSCLC = tested on: LXFL 529 NSCLC
HL-60(TB) leukemia = tested on: HL-60(TB) leukemia

Compound: S=C(S)N1CCCCC1
- TGI (RPMI-8226 leukemia): 68.3 µM and > 406 µM
- TGI (COLO 205 colon): 82.7 µM
- GI50 (HOP-92 NSCLC): 24.9 µM and 116 µM
- TGI (HOP-92 NSCLC): > 406 µM
- GI50 (EKVX NSCLC): 46.5 µM
- TGI (EKVX NSCLC): > 406 µM
- GI50 (NCI/ADR-RES ovarian): 20.8 µM
- TGI (NCI/ADR-RES ovarian): 93.5 µM and 173 µM
- GI50 (SK-MEL-28 melanoma): 89 µM
- TGI (SK-MEL-28 melanoma): > 406 µM
- TGI (NCI-H460 lung): 85 µM
- TGI (HS 578T breast): > 406 µM
- GI50 (NCI-H23 lung): 36.6 µM
- TGI (NCI-H23 lung): > 406 µM
- TGI (SK-MEL-5 melanoma): 81.5 µM
- GI50 (U251 CNS): 60.3 µM
- TGI (U251 CNS): > 406 µM
- GI50 (ACHN renal): 19.6 µM and 54.3 µM
- TGI (ACHN renal): > 406 µM
- GI50 (SF-268 CNS): 26 µM and 106 µM
- TGI (SF-268 CNS): > 406 µM
- TGI (MCF7 breast): 88.3 µM
- GI50 (KM12 colon): 50.2 µM and 51.8 µM
- TGI (KM12 colon): 137 µM
- GI50 (OVCAR-8 ovarian): 22.9 µM and 15.9 µM
- TGI (OVCAR-8 ovarian): > 406 µM
- TGI (BT-549 breast): > 406 µM
- GI50 (A549 NSCLC): 71.6 µM
- TGI (A549 NSCLC): > 406 µM
- GI50 (NCI-H226 lung): 42.4 µM
- TGI (NCI-H226 lung): > 406 µM
- TGI (OVCAR-3 ovarian): > 406 µM
- GI50 (SN12C renal): 89.7 µM and 49.8 µM
- TGI (SN12C renal): > 406 µM
- GI50 (UO-31 renal): 20.9 µM
- TGI (UO-31 renal): 55.5 µM and 398 µM
- GI50 (HCT-116 colon): 12 µM
- TGI (HCT-116 colon): 26.2 µM and 45.3 µM
- GI50 (SK-MEL-2 melanoma): 28.2 µM and 54.1 µM
- TGI (SK-MEL-2 melanoma): 84.6 µM and 179 µM
- GI50 (M14 melanoma): 10.9 µM
- TGI (M14 melanoma): 85.7 µM and 29.7 µM
- GI50 (T-47D breast): 45.7 µM
- TGI (T-47D breast): 299 µM
- GI50 (MALME-3M melanoma): 40.6 µM and 129 µM
- TGI (MALME-3M melanoma): 64.8 µM and > 406 µM
- GI50 (OVCAR-4 ovarian): 51 µM
- TGI (OVCAR-4 ovarian): 295 µM
- GI50 (SNB-75 CNS): 28 µM
- TGI (SNB-75 CNS): > 406 µM
- GI50 (CAKI-1 renal): 19.9 µM
- TGI (CAKI-1 renal): 99.1 µM and > 406 µM
- TGI (TK-10 renal): > 406 µM
- TGI (M19-MEL melanoma): > 46.9 µM
- GI50 (SR leukemia): 17.5 µM and 80.7 µM
- TGI (SR leukemia): 67 µM and > 406 µM
- TGI (OVCAR-5 ovarian): > 406 µM
- GI50 (UACC-62 melanoma): 19.8 µM
- TGI (UACC-62 melanoma): > 46.3 µM and 82.5 µM
- TGI (DU-145 prostate): > 406 µM
- GI50 (HCT-15 colon): 25.3 µM and 22.8 µM
- TGI (HCT-15 colon): 177 µM
- GI50 (HOP-62 NSCLC): 17 µM
- TGI (HOP-62 NSCLC): > 406 µM
- TGI (SK-OV-3 ovarian): 353 µM
- GI50 (SW-620 colon): 21.6 µM and 18.4 µM
- TGI (SW-620 colon): 66.1 µM and 63.6 µM
- TGI (MDA-MB-231 breast): > 406 µM
- GI50 (LOX IMVI melanoma): 11.2 µM and 8.18 µM
- TGI (LOX IMVI melanoma): 26.6 µM and 16.3 µM
- TGI (PC-3 prostate): 70.4 µM and > 406 µM
- GI50 (K-562 leukemia): > 406 µM
- GI50 (NCI-H522 lung): 28 µM
- GI50 (MDA-N): 70.4 µM
- TGI (MDA-N): 46.6 µM
- GI50 (MDA-MB-435): 20.4 µM
- TGI (MDA-MB-435): 67.9 µM and > 406 µM
- GI50 (786-0 renal): 12.9 µM and 64.5 µM
- TGI (786-0 renal): > 406 µM
- TGI (SNB-19 CNS): > 406 µM
- GI50 (UACC-257 melanoma): 30.7 µM and 38 µM
- TGI (UACC-257 melanoma): > 406 µM
- GI50 (IGROV1 ovarian): 55.2 µM and 10.5 µM
- TGI (IGROV1 ovarian): 100 µM
- GI50 (SF-295 CNS): 34 µM and 39.3 µM
- TGI (SF-295 CNS): > 406 µM
- TGI (RXF 393 renal): > 406 µM
- GI50 (SF-539 CNS): 32.3 µM and 22.7 µM
- TGI (SF-539 CNS): 83.3 µM and > 406 µM

Compound: CCN(CC)CCN1C(=O)CC2[C@@H]3CCc4cc(OC)ccc4C3CC[C@]2(C)C1=O (some centres not stated)
- TGI (RPMI-8226 leukemia): 66 µM
- TGI (COLO 205 colon): 39.1 µM
- TGI (HOP-92 NSCLC): > 100 µM
- TGI (SNB-78 CNS): > 100 µM
- TGI (SK-MEL-28 melanoma): 33.1 µM
- TGI (NCI-H460 lung): > 100 µM
- TGI (CCRF-CEM leukemia): 39.2 µM
- TGI (NCI-H23 lung): > 100 µM
- TGI (KM20L2 colon): 46 µM
- TGI (U251 CNS): > 100 µM
- TGI (ACHN renal): > 100 µM
- TGI (SF-268 CNS): > 100 µM
- TGI (A498 renal): > 100 µM
- TGI (KM12 colon): > 100 µM
- TGI (OVCAR-3 ovarian): > 100 µM
- TGI (UO-31 renal): 64.6 µM
- TGI (SK-MEL-2 melanoma): 37.4 µM
- TGI (M14 melanoma): 33.1 µM
- TGI (MALME-3M melanoma): 33.4 µM
- TGI (OVCAR-4 ovarian): > 100 µM
- TGI (SNB-75 CNS): > 100 µM
- TGI (M19-MEL melanoma): 35.8 µM
- TGI (OVCAR-5 ovarian): > 100 µM
- TGI (UACC-62 melanoma): 36 µM
- TGI (HOP-62 NSCLC): 54.2 µM
- TGI (SK-OV-3 ovarian): > 100 µM
- TGI (K-562 leukemia): 36.1 µM
- TGI (NCI-H522 lung): 53.7 µM
- TGI (HT29 colon): 41.4 µM
- TGI (LXFL 529 NSCLC): 30.9 µM
- TGI (786-0 renal): 31.1 µM
- TGI (SNB-19 CNS): > 100 µM
- TGI (UACC-257 melanoma): 30.2 µM
- TGI (HL-60(TB) leukemia): 36.7 µM
- TGI (IGROV1 ovarian): > 100 µM
- TGI (SF-295 CNS): 37.6 µM
- TGI (RXF 393 renal): 92.3 µM
- TGI (SF-539 CNS): 19.5 µM
